Assay results reported in US20120329117A1, “CONTROL OF CONTAMINANT MICROORGANISMS IN FERMENTATION PROCESSES WITH SYNERGISTIC FORMULATIONS CONTAINING STABILIZED CHLORINE DIOXIDE AND PEROXIDE COMPOUND” (E.I. DU PONT DE NEMOURS AND COMPANY, priority 2010, published 2012).

Tested on: L. brevis
Assay: Reduction of lactic acid bacteria in inoculated corn mash (plate count on MRS agar)
Type: cell-based, Lactobacillus brevis
Conditions: corn mash inoculated with L. brevis
Procedure: In this example, corn mash was obtained from a commercial ethanol plant immediately after the liquefaction step. The mash was cooled to room temperature and then inoculated with L. brevis cultures prepared as was described in Example 1. 50 ml portions of the inoculated corn mash were treated with SCD, HP and a combination of both as follows:
Following treatment, the samples were incubated for 2 hours in a shaking incubator. Surviving bacteria in each sample was enumerated by plating serial dilutions of each on MRS agar plates (available from Difco Laboratories, Inc., Sparks, Md.) and further incubating the plates for 48 hours at 32° C.

## OO [HP, hydrogen peroxide]
50 ppm HP
  Viable cells after 2 hours: 7.48 Log CFU/g
100 ppm HP
  Viable cells after 2 hours: 5.97 Log CFU/g
